Experimental data from patent publication US20240041042A1, “1-(PYRIDYL)-5-AZINYLPYRAZOLE DERIVATIVES, AND THEIR USE FOR CONTROL OF UNDESIRED PLANT GROWTH” (Bayer Aktiengesellschaft, priority 2020, published 2024).

Assays:
Assay type in all cases: in vivo
Viola tricolor (VIOTR) [1] = assay: Post-emergence herbicidal action against VIOTR
Summary of the method: (§1)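 Greenhouse plants sprayed at the one-leaf stage, 2–3 weeks after sowing, with WP or EC formulations plus 0.5% additive at 600 l/ha water. Activity rated visually after about 3 weeks versus untreated controls (100% = dead, 0% = like control), at 320 g/ha or lower.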

[2] = test system: Pharbitis purpurea (PHBPU); assay: Post-emergence herbicidal action against PHBPU
Summary of the method: as §1

Viola tricolor (VIOTR) [3] = assay: Pre-emergence herbicidal action against VIOTR
Summary of the method: (§2)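 Pre-emergence soil-surface spray of compound, formulated as wettable powder or emulsion concentrate, in aqueous suspension or emulsion with 0.5% additive (600 l/ha; rate 320 g/ha or less). Activity rated visually after roughly 3 weeks in the greenhouse as a percentage of untreated controls, 0% meaning no difference.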

Setaria viridis (SETVI) [4] = assay: Post-emergence herbicidal action against SETVI
Summary of the method: as §1

[5] = test system: Echinochloa crus-galli (ECHCG); assay: Post-emergence herbicidal action against ECHCG
Summary of the method: as §1

Avena fatua (AVEFA) = assay: Pre-emergence herbicidal action against AVEFA; settings: visual scoring after about 3 weeks vs untreated controls
Summary of the method: as §2

[6] = test system: Verconica persica (VERPE); assay: Pre-emergence herbicidal action against VERPE
Summary of the method: as §2

[7] = test system: Verconica persica (VERPE); assay: Post-emergence herbicidal action against VERPE
Summary of the method: as §1

[8] = test system: Echinochloa crus-galli (ECHCG); assay: Pre-emergence herbicidal action against ECHCG
Summary of the method: as §2

Setaria viridis (SETVI) [9] = assay: Pre-emergence herbicidal action against SETVI
Summary of the method: as §2

CCOC(=O)[C@@H](C)Oc1nn(-c2ncccc2F)c(-c2ccc(F)nc2)c1C1CC1 [Example I-375]
Post-emergence action against VIOTR in % (Viola tricolor (VIOTR) [1]; 80 g/ha): 80%
Post-emergence action against VIOTR in % (Viola tricolor (VIOTR) [1]; 320 g/ha): 90%
Post-emergence action against PHBPU in % ([2]; dosage 80 g/ha): 80%
Post-emergence action against PHBPU in % ([2]; dosage 320 g/ha): 90%
Pre-emergence action against VIOTR in % (Viola tricolor (VIOTR) [3]; 320 g/ha, Viola tricolor): 100%
Pre-emergence action against VIOTR in % (Viola tricolor (VIOTR) [3]; dosage 80 g/ha): 100%
Post-emergence action against SETVI in % (Setaria viridis (SETVI) [4]; dosage 80 g/ha): 90%
Post-emergence action against SETVI in % (Setaria viridis (SETVI) [4]; dosage 320 g/ha): 90%
Post-emergence action against ECHCG in % ([5]; dosage 80 g/ha): 90%
Post-emergence action against ECHCG in % ([5]; dosage 320 g/ha): 90%
Pre-emergence action against AVEFA in % (Avena fatua (AVEFA); 80 g/ha): 90%
Pre-emergence action against AVEFA in % (Avena fatua (AVEFA); 320 g/ha): 100%
Pre-emergence action against VERPE in % ([6]; dosage 80 g/ha): 100%
Pre-emergence action against VERPE in % ([6]; dosage 320 g/ha): 100%
Post-emergence action against VERPE in % ([7]; 320 g/ha, VERPE): 90%
Post-emergence action against VERPE in % ([7]; dosage 80 g/ha): 80%
Pre-emergence action against ECHCG in % ([8]; dosage 80 g/ha): 80%
Pre-emergence action against ECHCG in % ([8]; dosage 320 g/ha): 100%
Pre-emergence action against SETVI in % (Setaria viridis (SETVI) [9]; dosage 80 g/ha): 90%
Pre-emergence action against SETVI in % (Setaria viridis (SETVI) [9]; dosage 320 g/ha): 100%

COC(=O)C(C)COC(=O)[C@@H](C)Oc1nn(-c2ccccn2)c(-c2cncc(F)c2)c1Cl (stereo partly drawn) [Example I-198]
Post-emergence action against VIOTR in % (Viola tricolor (VIOTR) [1]; 320 g/ha): 80%
Post-emergence action against PHBPU in % ([2]; dosage 80 g/ha): 80%
Post-emergence action against PHBPU in % ([2]; dosage 320 g/ha): 90%
Pre-emergence action against VIOTR in % (Viola tricolor (VIOTR) [3]; 320 g/ha, Viola tricolor): 100%
Pre-emergence action against VIOTR in % (Viola tricolor (VIOTR) [3]; dosage 80 g/ha): 90%
Post-emergence action against SETVI in % (Setaria viridis (SETVI) [4]; dosage 80 g/ha): 80%
Post-emergence action against SETVI in % (Setaria viridis (SETVI) [4]; dosage 320 g/ha): 80%
Post-emergence action against ECHCG in % ([5]; dosage 80 g/ha): 80%
Post-emergence action against ECHCG in % ([5]; dosage 320 g/ha): 80%
Pre-emergence action against AVEFA in % (Avena fatua (AVEFA); 320 g/ha): 90%
Pre-emergence action against VERPE in % ([6]; dosage 80 g/ha): 90%
Pre-emergence action against VERPE in % ([6]; dosage 320 g/ha): 100%
Post-emergence action against VERPE in % ([7]; 320 g/ha, VERPE): 80%
Post-emergence action against VERPE in % ([7]; dosage 80 g/ha): 80%
Pre-emergence action against ECHCG in % ([8]; dosage 80 g/ha): 90%
Pre-emergence action against ECHCG in % ([8]; dosage 320 g/ha): 100%
Pre-emergence action against SETVI in % (Setaria viridis (SETVI) [9]; dosage 80 g/ha): 100%
Pre-emergence action against SETVI in % (Setaria viridis (SETVI) [9]; dosage 320 g/ha): 100%

COC(=O)CCOC(=O)[C@@H](C)Oc1nn(-c2ccccn2)c(-c2cncc(F)c2)c1Cl [Example I-196]
Post-emergence action against VIOTR in % (Viola tricolor (VIOTR) [1]; 80 g/ha): 80%
Post-emergence action against VIOTR in % (Viola tricolor (VIOTR) [1]; 320 g/ha): 80%
Post-emergence action against PHBPU in % ([2]; dosage 80 g/ha): 90%
Post-emergence action against PHBPU in % ([2]; dosage 320 g/ha): 90%
Pre-emergence action against VIOTR in % (Viola tricolor (VIOTR) [3]; 320 g/ha, Viola tricolor): 100%
Pre-emergence action against VIOTR in % (Viola tricolor (VIOTR) [3]; dosage 80 g/ha): 90%
Post-emergence action against SETVI in % (Setaria viridis (SETVI) [4]; dosage 80 g/ha): 80%
Post-emergence action against SETVI in % (Setaria viridis (SETVI) [4]; dosage 320 g/ha): 80%
Post-emergence action against ECHCG in % ([5]; dosage 80 g/ha): 80%
Post-emergence action against ECHCG in % ([5]; dosage 320 g/ha): 80%
Pre-emergence action against AVEFA in % (Avena fatua (AVEFA); 80 g/ha): 80%
Pre-emergence action against AVEFA in % (Avena fatua (AVEFA); 320 g/ha): 90%
Pre-emergence action against VERPE in % ([6]; dosage 80 g/ha): 90%
Pre-emergence action against VERPE in % ([6]; dosage 320 g/ha): 100%
Post-emergence action against VERPE in % ([7]; 320 g/ha, VERPE): 90%
Post-emergence action against VERPE in % ([7]; dosage 80 g/ha): 80%
Pre-emergence action against ECHCG in % ([8]; dosage 80 g/ha): 90%
Pre-emergence action against ECHCG in % ([8]; dosage 320 g/ha): 90%
Pre-emergence action against SETVI in % (Setaria viridis (SETVI) [9]; dosage 80 g/ha): 90%
Pre-emergence action against SETVI in % (Setaria viridis (SETVI) [9]; dosage 320 g/ha): 100%

CCOC(=O)[C@@H](C)Oc1nn(-c2ccccn2)c(-c2cncc(F)c2)c1Cl [Example I-184]
Post-emergence action against VIOTR in % (Viola tricolor (VIOTR) [1]; 80 g/ha): 80%
Post-emergence action against VIOTR in % (Viola tricolor (VIOTR) [1]; 320 g/ha): 90%
Post-emergence action against PHBPU in % ([2]; dosage 80 g/ha): 90%
Post-emergence action against PHBPU in % ([2]; dosage 320 g/ha): 90%
Pre-emergence action against VIOTR in % (Viola tricolor (VIOTR) [3]; 320 g/ha, Viola tricolor): 100%
Pre-emergence action against VIOTR in % (Viola tricolor (VIOTR) [3]; dosage 80 g/ha): 100%
Post-emergence action against SETVI in % (Setaria viridis (SETVI) [4]; dosage 80 g/ha): 80%
Post-emergence action against SETVI in % (Setaria viridis (SETVI) [4]; dosage 320 g/ha): 90%
Post-emergence action against ECHCG in % ([5]; dosage 80 g/ha): 90%
Post-emergence action against ECHCG in % ([5]; dosage 320 g/ha): 90%
Pre-emergence action against AVEFA in % (Avena fatua (AVEFA); 80 g/ha): 80%
Pre-emergence action against AVEFA in % (Avena fatua (AVEFA); 320 g/ha): 90%
Pre-emergence action against VERPE in % ([6]; dosage 80 g/ha): 90%
Pre-emergence action against VERPE in % ([6]; dosage 320 g/ha): 100%
Post-emergence action against VERPE in % ([7]; 320 g/ha, VERPE): 90%
Post-emergence action against VERPE in % ([7]; dosage 80 g/ha): 90%
Pre-emergence action against ECHCG in % ([8]; dosage 80 g/ha): 90%
Pre-emergence action against ECHCG in % ([8]; dosage 320 g/ha): 100%
Pre-emergence action against SETVI in % (Setaria viridis (SETVI) [9]; dosage 80 g/ha): 100%
Pre-emergence action against SETVI in % (Setaria viridis (SETVI) [9]; dosage 320 g/ha): 100%
